Results published in article PMC8165021 (Bioorganic & medicinal chemistry letters, 2021).

What was measured:
D3R [1] = target: T1, D3R (Homo sapiens, UniProt P35462); experiment: Radioligand binding at D3R; details: for D3R selectivities versus the other dopamine receptors tested: versus D1R, D2R, D4R, D5R
D3R [2] = target: T1, D3R; details: flexible n-butyl linker compound from previous study; ref [19]; cited from earlier work

T1 sequence (P35462 whole entry): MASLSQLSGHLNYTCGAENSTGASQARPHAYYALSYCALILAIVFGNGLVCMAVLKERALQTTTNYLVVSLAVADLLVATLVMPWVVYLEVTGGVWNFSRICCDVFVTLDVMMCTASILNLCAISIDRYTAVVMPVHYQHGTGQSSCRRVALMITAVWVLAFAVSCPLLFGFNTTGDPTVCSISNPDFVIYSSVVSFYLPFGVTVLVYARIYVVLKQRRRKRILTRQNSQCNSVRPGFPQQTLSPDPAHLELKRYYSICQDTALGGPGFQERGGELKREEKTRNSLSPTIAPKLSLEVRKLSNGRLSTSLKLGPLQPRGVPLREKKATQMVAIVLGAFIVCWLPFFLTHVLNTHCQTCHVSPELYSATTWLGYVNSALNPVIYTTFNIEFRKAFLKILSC

COc1cc2c(cc1O)CN(Cc1ccccc1CNC(=O)c1cccc(C#N)c1)CC2 [5i]
D3R selectivity versus D4R (D3R [1]; ratio of Ki values): > 100 fold

COc1cc2c(cc1OC)CN(Cc1ccccc1CNC(=O)c1cccc(C#N)c1)CC2 [5s]
D3R selectivities versus the other dopamine receptors tested (D3R [1]): 15- to 420 fold

COc1cc2c(cc1OC)CN(Cc1ccccc1CNC(=O)c1ccc(C#N)cc1)CC2 [5t]
D3R selectivities versus the other dopamine receptors tested (D3R [1]): 15- to 420 fold

O=C(NCc1ccccc1CN1CCc2cc(O)c(O)cc2C1)c1cccc(Br)c1 [6a]
D3R selectivity versus D1R, D2R and D4R (D3R [1]): < 50 fold

COc1cc2c(cc1O)CN(CCCCNC(=O)c1ccc(C#N)cc1)CC2 [compound 1]
selectivity for D3R over σ2R (D3R [2]): good selectivity
